Measured values: patent publication US20240285626A1, “INFIGRATINIB FOR TREATMENT OF FGFR3-RELATED SKELETAL DISEASES DURING PREGNANCY” (INSERM (INSTITUT NATIONAL DE LA SANTÉ ET DE LA RECHERCHE …, priority 2018, published 2024)

Assays:
[1] = tested on: Fgfr3Y367C/+ pups exhibiting dwarfism; conditions: Komla-Ebri et al 2016; Biosse Duplan et al 2016; cited from earlier work
[2] = tested on: Fgfr3Y367C/+ pups; assay type: in vivo, mice
Method: We treated pregnant female Fgfr3^Neo/Y367C mice that were mated with Cre^CMV/+ male mice (Pannier, S., Couloigner, V., Messaddeq, N., Elmaleh-Bergès, M., Munnich, A., Romand, R., & Legeai-Mallet, L. (2009). Activating Fgfr3 Y367C. mutation causes hearing loss and inner ear defect in a mouse model of chondrodysplasia. Biochimica et Biophysica Acta (BBA)-Molecular Basis of Disease, 1792(2), 140-147.). We injected BGJ398 (4 mg/kg) subcutaneously in 5 pregnant mice at day E14.5 continuing daily through day 1 (after birth). The pregnant mice received 5 injections of BGJ398 before delivery. We applied isofluorane inhalation to the pregnant mice during 20 seconds before the subcutaneous injections. All the pups were analyzed at day 1 after birth. At necropsy, all the long bones were measured and embedded in paraffin and were submitted to histology and immunology.

[3] = Fgfr3Y367C/+ pups, day 1 after birth, mothers 4 mg/kg s.c. daily from E14.5, vs vehicle
[4] = femur histology, H&E staining, vs vehicle, data not shown

CCN1CCN(c2ccc(Nc3cc(N(C)C(=O)Nc4c(Cl)c(OC)cc(OC)c4Cl)ncn3)cc2)CC1 [BGJ398, 3-(2,6-dichloro-3,5-dimethoxyphenyl)-1-[6-[4-(4-ethylpiperazin-1-yl)anilino]pyrimidin-4-yl]-1-methylurea]
pathological hallmarks of ACH [1]: corrects pathological hallmarks of ACH | skeletal phenotype at birth ([2]; 4 Fgfr3Y367C/+ pups that received BGJ398 vs 5 that received vehicle): improvement of the skeletal phenotype | length of the upper limbs (humerus, ulna, radius), in words ([2]; FIG. 1A-C, pups at day 1, mothers 4 mg/kg s.c.): significant improvement of the length | length of the lower limbs (femur, tibia), in words ([2]; FIG. 2A-B, pups at day 1, mothers 4 mg/kg s.c.): improvement of the length | improvement of the size of tibia [2, 3]: +4.32% | increase of the length of humerus [2, 3]: +4.35% | increase of the length of ulna [2, 3]: +6.12% | organization of chondrocytes in the proliferative zone of the growth plate cartilage [2, 4]: well organized | size of the hypertrophic chondrocytes in the hypertrophic zone [2, 4]: increased | placental transfer ([2]; mouse, in vivo): cross the placenta at therapeutic level | skeletal anomalies that occurred during embryonic stages ([2]; treatment during 5 days in pregnant mice): successfully repressed skeletal anomalies
